The record followed here is patent US20080051413A1, “Nitrophenylpiperazine derivative of xanthine which relaxes tracheal airway and increases respiratory performance” (KAOHSIUNG MEDICAL UNIVERSITY, priority 2006, published 2008).

Where “and” joins values, the source holds several entries; their conditions need not be identical. Identical values can stand only once.

For data set [1], the system named is guinea pig tracheal smooth muscle cells. In words: Measurement of cAMP in TSMCs. The data set is classed as cell-based. As to the method:
Cell Culture of Tracheal Smooth Muscle: Guinea pigs (350-450 g) were injected i.p. with a lethal dose of pentobarbital. The tracheas were excised and cut longitudinally through the cartilage. Using a dissecting microscope, TSM strips were dissected from the surrounding parentchyma. The epithelium was removed from the luminal surface, and bands of TSM were gently separated from the underlying connective tissue. Then TSM strips were chopped into small sections (1 mm^3) and incubated in Hanks' balanced salt solution (138 mM NaCl, 4 mM NaHCO3, 5 mM KCl, 0.3 mM KH2PO4, 0.3 mM Na2HPO4, and 1.0 mM glucose) with 0.05% elastase type IV and 0.2% collagenase type IV (Invitrogen, Carlsbad, Calif.) for 30 min at 37_ with gentle shaking. The solution of dissociated smooth muscle cells was centrifuged (6 min at 500 g), and the pellet was resuspended in 1:1 Dulbecco's modified Eagle's medium/Ham's F-12 medium supplemented with 10% fetal bovine serum, 0.244% NaHCO3, and 1% penicillin/streptomycin. Cells were cultured in 25-cm^2 flasks at 37_ in humidified air containing 5% CO2. Confluent cells were detached with 0.25% trypsin-0.02% EDTA at 37_and then subcultured to establish secondary cultures. Cultures were maintained for no more than four passages. They were identified as smooth muscle cells by the typical hill-and-valley appearance, and cellular homogeneity was further confirmed by the presence of smooth muscle specific _-myosin and _-actin immunoreactivity. Indirect immunofluorescence staining for a variety of antigens was carried out by first plating the cells on chamber slides, fixing the cells in 3.7% formaldehyde-phosphate-buffered saline for 10 min, and permeabilizing the cells with phosphate-buffered saline and 0.1% Triton X-100. Cells were then stained with either a mouse monoclonal antibody directed against the amino-terminal 10 amino acids of _-smooth muscle actin or _-myosin (Roche Diagnostics, Indianapolis, Ind.). All cells were stained with fluorescein-labeled goat anti-mouse IgG antibody (Roche Diagnostics).
Measurement of cAMP and cGMP: Intracellular concentrations of cAMP and cGMP in TSMCs were measured as in our previous reports (Wu B N, Lin R J, Lin C Y, Shen K P, Chiang L C, and Chen I J (2001) A xanthine-based KMUP-1 with cyclic GMP enhancing and K^+ channels opening activities in rat aortic smooth muscle. Br J Pharmacol 134:265-274; Lin R J, Wu B N, Lo Y C, Shen K P, Lin Y T, Huang C H, and Chen I J (2002) KMUP-1 relaxes rabbit corpus cavernosum smooth muscle in vitro and in vivo: involvement of cyclic GMP and K(+) channels, Br J Pharmacol 135:1159-1166). In brief, cells were finally grown in 24-well plates (10^5 cells/well). At confluence, monolayer cells were washed with phosphate-buffered saline and then incubated with KMUP-3 (0.01-100 _M) for 20 min at 37_ in medium. […] The reaction was terminated by replacement of medium with 1 ml of ice-cold 1 N hydrochloric acid. Cells suspensions were sonicated and then centrifuged at 2500 g for 15 min at 4_. Then, the supernatants were lyophilized and the cAMP and cGMP of each sample were determined using commercially available radioimmunoassay kits (GE Healthcare, Little Chalfont, Buckinghamshire, UK).

In data set [2] the test system is TNF-_-induced bronchoconstriction. In words: TNF-_-induced bronchoconstriction, intratracheal instillation. The class given is in vivo, guinea pig. As to the method:
Animals: Male Dunkin Harley guinea pigs (350-450 g) were provide by the National Laboratory Animal Breeding and Research Center (Taipei, Taiwan) and housed under conditions of constant temperature and controlled illumination. Food and water were available and libitum. The study was approved by the Animal Care and Use Committee of the Kaohsiung Medical University.
Pulmonary Function: Guinea pegs (350-450 g) were anesthetized with pentobarbital (40 mg/kg i.p.) and maintained with further i.v. doses of 2 to 5 mg/kg when required according to methods previously described (Wu B N, Lin R J, Lo Y C, Shen K P, Wang C C, Lin Y T, and Chen I J (2004) KMUP-1, a xanthine derivative, induces relaxation of guinea-pig isolated trachea: the role of the epithelium, cyclic nucleotides and K^+ channels, Br J Pharmacol 142:1105-1114). The animal was tethered in a supine position, and the trachea was cannulated below the larynx with a short tracheal cannula via a tracheotomy. Tracheal pressure was measured by a catheter connected to the side arm of the tracheal cannula. The carotid artery and jugular vein were cannulated to monitor blood pressure and heart rate and for drug administration, respectively. Throughout the experiment, the body temperature of the guinea pig was maintained at 37_. Measurements of pulmonary cardiac function were carried out as previously described (Hsu T H, Lai Y L, and Kou Y R (1998) Acetylcholine and tachykinin receptor antagonists attenuate wood smoke-induced bronchoconstriction in Guinea pigs. Eur J Pharmacol 360:175-183). Total lung resistance (RL) and dynamic lung compliance (Cdyn) were measured on a breath-by-breath basis using a computer equipped with an A/D interface (DAS 1600; Buxco Electronics, Inc., Wilmington, N.C.) and software (version 1.5.7; Buxco Electronics, Inc.). Results obtained from the computer analysis were checked for accuracy by comparison with those calculated manually.
Animals were allowed to stabilize for 10 min following surgical manipulations before the test agent was administered. […]

The mark [3] stands for this setting: 0.5, 1.0, 2.0 mg/kg intratracheal, 15 min prior to TNF-_ (0.01 mg/kg).

`Cn1c(=O)c2c(ncn2CCN2CCN(c3ccc([N+](=O)[O-])cc3)CC2)n(C)c1=O` [KMUP-3]: the cAMP level in data set [1] (0.01 _M, 20 min, basal 62.6±6.4) was 80.2±2.5 pmol/mg protein; in data set [1] (0.1 _M, 20 min, basal 62.6±6.4) it was 91.3±3.4 pmol/mg protein; in data set [1] (1 _M, 20 min, basal 62.6±6.4) it was 97.9±2.5 pmol/mg protein; in data set [1] (10 _M, 20 min, basal 62.6±6.4), 110.7±4.5 pmol/mg protein; in data set [1] (100 _M, 20 min, basal/vehicle 62.6±6.4) it was 127.5±4.8 pmol/mg protein and 128.72 ± 4.57 pmol/mg protein. In data set [1] (100 _M compound plus SQ 22536 (100 _M) pretreatment), the “cAMP level in presence of SQ 22536” value was determined as 74.51 ± 3.18 pmol/mg protein. For the same compound, the “cAMP accumulation versus vehicle (FIG. 6)” value in data set [1] (100 _M, 20 min) is listed as “significant elevations”. The “effect on Cdyn in TNF-_-induced bronchocontraction (FIG. 2)” value in data set [2] (setting [3]) was “increasing Cdyn”. Further, in data set [2] (setting [3]), the “effect on RL in TNF-_-induced bronchocontraction (FIG. 2)” value was “decreasing RL”. In addition, the “Blood pressure and heart rate” value in data set [2] (intratracheal instillation, during recording of lung function) is reported as “not significantly changed”.
